Columns and labels:
[1] = target: human GABAA α1β3γ2 receptor (Homo sapiens (Human), UniProt P14867+P18507); test: Radioligand binding assay, competition for [3H]Flumazenil, γ2-containing GABAA subtypes; details: Table 1; [3H]Flumazenil displacement, HEK293F cells, mean of two determinations; read-out: Ki h-GABAA α1β3γ2
Procedure: The affinity of compounds at GABAA γ2 subunit-containing receptors was measured by competition for [^3H]Flumazenil (81.1 Ci/mmol; Roche) binding to HEK293F cells expressing human (transiently transfected) receptors of composition α1β3γ2.
Harvested pellets from HEK293F cells expressing the different GABAA γ2 receptor subtypes were resuspended in Mannitol Buffer pH 7.2-7.4 and processed as described above for the cells expressing the GABAA γ1 subunit-containing receptors.
Assays were incubated to equilibrium for 1 hour at 4° C. and harvested onto GF/C uni-filters (Packard) by filtration using a Packard harvester and washing with ice-cold wash buffer (50 mM Tris; pH 7.5). After anhydrousing, filter-retained radioactivity was detected by liquid scintillation counting. Ki values were calculated using Excel-Fit (Microsoft) and are the means of two determinations.

[2] = target: human GABAA α2β2γ1 receptor (Homo sapiens (Human), UniProt P47869+Q8N1C3); test: Radioligand binding assay, competition for [3H]RO7239181, γ1-containing GABAA subtypes; details: for Ki: [3H]RO7239181 displacement; for γ2/γ1 Selectivity Ratio / LogSel: Table 1; for γ2/γ1 Selectivity Ratio: Ki α1β3γ2 (nM)/Ki α2β2γ1 (nM); for LogSel: Log of the γ2/γ1 Ki ratio
Procedure: (§1) The affinity of compounds at GABAA γ1 subunit-containing receptors was measured by competition for [^3H]RO7239181 (67.3 Ci/mmol; Roche) binding to membranes from HEK293F cells (ThermoFisher R79007) expressing human (transiently transfected) receptors of composition α5β2γ1, α2β2γ1, α1β2γ1.
(§2) Harvested pellets from HEK293F cells expressing the different GABAA receptor subtypes were resuspended in Mannitol Buffer pH 7.2-7.4 (Mannitol 0.29 M, Triethylamine 10 mM, Acetic acid 10 mM, EDTA 1 mM plus protease inhibitors (20 tablets Complete, Roche Diagnostics Cat. No. 05 056 489 001 per liter)), washed two times and then resuspended at 1:10 to 1:15 dilution in the same buffer. Cell disruption was performed by stirring the suspension in a Parr vessel #4637 at 435 psi for 15 minutes, and then the suspensions were centrifuged at 1000×g for 15 minutes at 4° C. (Beckman Avanti J-HC: rotor JS-4.2). The supernatant (S1) was transferred in a 21 Schott flask and the pellet (P1) was resuspended with Mannitol Buffer up to 175 ml. The resuspended pellet was transferred into a 250 ml Corning centrifugal beaker and centrifuged at 1500×g for 10 minutes at 4° C. (Beckman Avanti J-HC: rotor JS-4.2). The supernatant (S1) was then transferred in the 21 Schott flask and the pellet was discarded. The supernatants (S1) were centrifuged in 500 ml Beckman polypropylene centrifugal beaker at 15′000×g for 30 minutes at 4° C. (Beckman Avanti J-20 XP; rotor JLA-10.500). The pellet (P2) was resuspended with Mannitol Buffer 1:1 and frozen at −80° C. The supernatant (S2) was centrifuged in 100 ml Beckman polypropylene centrifugal tubes at 48000×g for 50 minutes at 4° C. (Beckman Avanti J-20 XP; rotor JA-18). The supernatant (S3) was discarded and the pellet (P3) was resuspended with 1:1 Mannitol Buffer. The P2 and P3 protein concentration was determined with the BIORAD Standard assay method with bovine serum albumin as standard and measured on the NANO-Drop 1000. The membrane suspension was aliquots (500 μl per tube) and stored at −80° C. until required.
(§3) Membrane homogenates were resuspended and polytronised (Polytron PT1200E Kinematica AG) in Potassium Phosphate 10 mM, KCl 100 mM binding buffer at pH 7.4 to a final assay concentration determined with a previous experiment.
(§4) Assays were incubated to equilibrium for 1 hour at 4° C. and then, membranes were filtered onto unifilter (96-well white microplate with bonded GF/C filters preincubated 20-50 minutes in 0.3% Polyethylenimine) with a Filtermate 196 harvester (Packard BioScience) and washed 4 times with cold Potassium Phosphate 10 mM pH 7.4, KCl 100 mM binding buffer. After anhydrousing, filter-retained radioactivity was detected by liquid scintillation counting. Ki values were calculated using Excel-Fit (Microsoft) and are the means of two determinations.

[3] = target: human GABAA α5β2γ1 receptor (Homo sapiens (Human), UniProt P31644+Q8N1C3); test: as above; details: Table 1; [3H]RO7239181 displacement, membranes from HEK293F cells, mean of two determinations
Procedure: as §1, with “α1β2γ1. For better protein expression of the α2 subunit-containing receptors, the 28 amino acid long signal peptide (Met1 to Ala28) of the human GABAA α2 subunit was substituted by the 31 amino acid long signal peptide (Met1 to Ser31) of human GABAA α5 subunit.” for “α1β2γ1.”
as §2, §3
as §4, with “Radioligand binding assays were carried out in a volume of 200 μL (96-well plates) which contained 100 μL of cell membranes, [3H]RO7239181 at a concentration of 1.5 nM (α5β2γ1) or 20-30 nM (α1β2γ1, α2β2γ1) and the test compound in the range of [0.3-10000]=10^−9 M. Nonspecific binding was defined by 10×10^−6 (α5β2γ1) and 30×10^−6 M RO7239181 and typically represented less than 5% (α5β2γ1) and less than 20% (β1β2γ1, α2β2γ1) of the total binding. Assays” for “Assays”
Representative test results, obtained by the above described assay measuring binding affinity to HEK293 cells expressing human (h) receptors, are shown in the Table 1.

[4] = Ki h-GABAA α2β2γ1, Table 1, membranes from HEK293F cells, mean of two determinations

SMILES | Ki [1] [nM] | Ki [2, 4] [nM] | Ki ([2]; Ki h-GABAA α2β2γ1, Table 2) [nM] | γ2/γ1 Selectivity Ratio [2] | LogSel [2] | Ki [3] [nM]
C[C@@H]1N=C(c2c(F)cccc2F)c2c(cnc(C(F)(F)F)c2Cl)-n2nc(C(=O)N3CCS(=O)(=O)CC3)nc21 [Example 11, [(7S)-11-chloro-9-(2,6-difluorophenyl)-7-methyl-12-(trifluoromethyl)-2,3,5,8,13-pentazatricyclo[8.4.0.02,6]tetradeca-1(10),3,5,8,11,13-hexaen-4-yl]-(1,1-dioxo-1,4-thiazinan-4-yl)methanone] | 7890 | 9.6 | 9.6 | 818 | 2.91 | 4.6
C[C@@H]1N=C(c2c(F)cccc2F)c2c(cnc(C(F)(F)F)c2Cl)-n2nc(NC(=O)C3COC3)nc21 [Example 12, N-[(7S)-11-chloro-9-(2,6-difluorophenyl)-7-methyl-12-(trifluoromethyl)-2,3,5,8,13-pentazatricyclo[8.4.0.02,6]tetradeca-1(10),3,5,8,11,13-hexaen-4-yl]oxetane-3-carboxamide] | 12300 | 69.2 | 69.2 | 178 | 2.25 | 5.2
C[C@@H]1N=C(c2c(F)cccc2F)c2c(cnc(C(F)(F)F)c2Cl)-n2nc(N3CCCC3=O)nc21 [Example 13, 1-[(7S)-11-chloro-9-(2,6-difluorophenyl)-7-methyl-12-(trifluoromethyl)-2,3,5,8,13-pentazatricyclo[8.4.0.02,6]tetradeca-1(10),3,5,8,11,13-hexaen-4-yl]pyrrolidin-2-one] | 5300 | 32 | 32 | 166 | 2.22 | 3.1
C[C@H](O)CNC(=O)c1nc2n(n1)-c1cnc(C(F)(F)F)c(Cl)c1C(c1c(F)cccc1F)=N[C@H]2C [Example 14, (7S)-11-chloro-9-(2,6-difluorophenyl)-N-[(2S)-2-hydroxypropyl]-7-methyl-12-(trifluoromethyl)-2,3,5,8,13-pentazatricyclo[8.4.0.02,6]tetradeca-1(10),3,5,8,11,13-hexaene-4-carboxamide] | 8760 | 46 | 39.2 | 190 | 2.28 | 3.7
C[C@@H]1N=C(c2c(F)cccc2F)c2c(cnc(C(F)(F)F)c2Cl)-n2nc(C(=O)NCCO)nc21 [Example 15, (7S)-11-chloro-9-(2,6-difluorophenyl)-N-(2-hydroxyethyl)-7-methyl-12-(trifluoromethyl)-2,3,5,8,13-pentazatricyclo[8.4.0.02,6]tetradeca-1(10),3,5,8,11,13-hexaene-4-carboxamide] | 9470 | 34.5 | 36.5 | 275 | 2.44 | 2.6
C[C@@H]1N=C(c2c(F)cccc2F)c2c(cnc(C(F)(F)F)c2Cl)-n2nc(C(=O)NC[C@@H](C)O)nc21 [Example 16, (7S)-11-chloro-9-(2,6-difluorophenyl)-N-[(2R)-2-hydroxypropyl]-7-methyl-12-(trifluoromethyl)-2,3,5,8,13-pentazatricyclo[8.4.0.02,6]tetradeca-1(10),3,5,8,11,13-hexaene-4-carboxamide] | 9470 | 39.8 | 35.3 | 238 | 2.38 | 4.1
Cc1nnc2n1-c1cnc(C(F)(F)F)c(Cl)c1C(c1c(F)cccc1Cl)=N[C@H]2C [Example 17, (7S)-11-chloro-9-(2-chloro-6-fluoro-phenyl)-3,7-dimethyl-12-(trifluoromethyl)-2,4,5,8,13-pentazatricyclo[8.4.0.02,6]tetradeca-1(10),3,5,8,11,13-hexaene] | 4870 | 22.6 | 21 | 215 | 2.33 | 3.8
C[C@@H]1N=C(c2c(F)cccc2F)c2c(cnc(C(F)(F)F)c2Cl)-n2cc(C(=O)NCCO)nc21 [Example 19, (7S)-11-chloro-9-(2,6-difluorophenyl)-N-(2-hydroxyethyl)-7-methyl-12-(trifluoromethyl)-2,5,8,13-tetrazatricyclo[8.4.0.02,6]tetradeca-1(10),3,5,8,11,13-hexaene-4-carboxamide] | 5100 | 21.2 | 23.2 | 241 | 2.38 | 3.8
C[C@@H]1N=C(c2c(F)cccc2F)c2c(cnc(C(F)(F)F)c2Cl)-n2c1nc1c2CCC1 [Example 20, (10S)-6-chloro-8-(2,6-difluorophenyl)-10-methyl-5-(trifluoromethyl)-1,4,9,12-tetrazatetracyclo[9.6.0.02,7.013,17]heptadeca-2(7),3,5,8,11,13(17)-hexaene] | 1090 | 11.8 | 15.1 | 92 | 1.96 | 4.9
C[C@@H]1N=C(c2c(F)cccc2F)c2c(cnc(C(F)(F)F)c2Cl)-n2nc(C(=O)NCC(C)(C)O)nc21 [Example 21, (7S)-11-chloro-9-(2,6-difluorophenyl)-N-(2-hydroxy-2-methyl-propyl)-7-methyl-12-(trifluoromethyl)-2,3,5,8,13-pentazatricyclo[8.4.0.02,6]tetradeca-1(10),3,5,8,11,13-hexaene-4-carboxamide] | 11300 | 72.3 | 72.3 | 156 | 2.19 | 10.7

From patent publication US20240270744A1 (Hoffmann-La Roche Inc., priority 2021, published 2024)
